Results from patent publication US7718808B2, “Thiazole derivatives” (Kyowa Hakko Kirin Co., Ltd., priority 2003, dated 2010).

First: COCCN(C)Cc1cc(C(=O)Nc2nc(-c3ccco3)c(-c3ccncc3)s2)ccn1 [Compound 110, N-[4-(2-Furyl)-5-(4-pyridyl)thiazol-2-yl]-2-[N-(2-methoxyethyl)-N-methylaminomethyl]pyridine-4-carboxamide]
Second: COc1cc(C(=O)Nc2nc(-c3ccco3)c(-c3ccncc3)s2)ccn1 [Compound 105, N-[4-(2-Furyl)-5-(4-pyridyl)thiazol-2-yl]-2-methoxypyridine-4-carboxamide]
The melting point of the first is lower: 195 to 197 °C for the first, 285 to 288 °C for the second.

`Cc1cc(C(=O)Nc2nc(-c3ccco3)c(C(=O)c3ccnc(C)c3)s2)ccn1` [Compound 333, N-[4-(2-Furyl)-5-(2-methylpyridin-4-ylcarbonyl)thiazol-2-yl]-2-methylpyridine-4-carboxamide] and `Cc1cc(C(=O)c2sc(NC(=O)c3ccncc3)nc2-c2ccco2)ccn1` [Compound 332, N-[4-(2-Furyl)-5-(2-methylpyridin-4-ylcarbonyl)thiazol-2-yl]pyridine-4-carboxamide] cannot be ordered by melting point: 205 to 229 °C for the first, 223 to 225 °C for the second.

First: O=C(Nc1nc(-c2ccco2)c(C(=O)C2CCOCC2)s1)c1ccccc1Cl [Compound 469, 2-Chloro-N-[4-(2-furyl)-5-(tetrahydropyran-4-ylcarbonyl)thiazol-2-yl]benzamide]
Second: O=C(Nc1nc(-c2ccco2)c(C(=O)C2CCOCC2)s1)c1ccccc1OC(F)(F)F [Compound 475, N-[4-(2-Furyl)-5-(tetrahydropyran-4-ylcarbonyl)thiazol-2-yl]-2-(trifluoromethoxy)benzamide]
The melting point of the first is higher: 160 to 162 °C for the first, 131 to 134 °C for the second.

First: O=C(Nc1nc(-c2ccco2)c(C(=O)c2ccccn2)s1)c1ccc2snnc2c1 [Compound 244, N-[4-(2-Furyl)-5-(pyridin-2-ylcarbonyl)thiazol-2-yl]-1,2,3-benzothiadiazole-5-carboxamide]
Second: COc1ccc(C(=O)Nc2nc(-c3ccco3)c(C(=O)c3ccccn3)s2)cc1OC [Compound 203, N-[4-(2-Furyl)-5-(pyridin-2-ylcarbonyl)thiazol-2-yl]-3,4-dimethoxybenzamide]
The melting point of the first is higher: 213 to 218 °C for the first, 169 to 170 °C for the second.

Compared with `CC(C)N1CCN(CC(=O)Nc2nc(-c3ccco3)c(C(=O)c3ccccn3)s2)CC1` [Compound 274, N-[4-(2-Furyl)-5-(pyridin-2-ylcarbonyl)thiazol-2-yl]-2-(4-isopropylpiperazin-1-yl)acetamide], `CN1CCN(CC(=O)Nc2nc(-c3ccco3)c(C(=O)c3ccccn3)s2)CC1` [Compound 272, N-[4-(2-Furyl)-5-(pyridin-2-ylcarbonyl)thiazol-2-yl]-2-(4-methylpiperazin-1-yl)acetamide] is lower in melting point: 154 to 155 °C for the first, 136 to 145 °C for the second.

First: Cc1ccc(C(=O)Nc2nc(-c3ccco3)c(C(=O)C3CCOCC3)s2)o1 [Compound 512, N-[4-(2-Furyl)-5-(tetrahydropyran-4-ylcarbonyl)thiazol-2-yl]-5-methylfuran-2-carboxamide]
Second: Cc1cc(C(=O)Nc2nc(-c3ccco3)c(C(=O)C3CCOCC3)s2)ccn1 [Compound 500, N-[4-(2-Furyl)-5-(tetrahydropyran-4-ylcarbonyl)thiazol-2-yl]-2-methylpyridine-4-carboxamide]
The melting point of the first is higher: 209 to 212 °C for the first, 169 to 173 °C for the second.

Compared with `O=C(c1ccccn1)c1sc(NC(=O)C2CCOCC2)nc1-c1ccco1` [Compound 194, N-[4-(2-Furyl)-5-(pyridin-2-ylcarbonyl)thiazol-2-yl]tetrahydropyran-4-carboxamide], `O=C(Nc1nc(-c2ccco2)c(C(=O)c2ccccn2)s1)OC1CCCC1` [Compound 252, Cyclopentyl N-[4-(2-furyl)-5-(pyridin-2-ylcarbonyl)thiazol-2-yl]carbamate] is lower in melting point: 234 to 235 °C for the first, 162 to 163 °C for the second.

Compared with `O=C(Nc1nc(-c2ccco2)c(C(=O)C2CCOCC2)s1)c1c(F)cccc1F` [Compound 492, 2,6-Difluoro-N-[4-(2-furyl)-5-(tetrahydropyran-4-ylcarbonyl)thiazol-2-yl]benzamide], `O=C(Nc1nc(-c2ccco2)c(C(=O)C2CCOCC2)s1)c1cc(F)ccc1F` [Compound 491, 2,5-Difluoro-N-[4-(2-furyl)-5-(tetrahydropyran-4-ylcarbonyl)thiazol-2-yl]benzamide] is higher in melting point: 168 to 170 °C for the first, 172 to 174 °C for the second.

First: CCOCC(=O)Nc1nc(-c2ccco2)c(C(=O)C2CCOCC2)s1 [Compound 532, 2-Ethoxy-N-[4-(2-furyl)-5-(tetrahydropyran-4-ylcarbonyl)thiazol-2-yl]acetamide]
Second: CN(C)CC(=O)Nc1nc(-c2ccco2)c(C(=O)C2CCOCC2)s1 [Compound 533, 2-(Dimethylamino)-N-[4-(2-furyl)-5-(tetrahydropyran-4-ylcarbonyl)thiazol-2-yl]acetamide]
The melting point of the first is lower: 121 to 126 °C for the first, 129 to 130 °C for the second.

Compared with `O=C(Nc1nc(-c2ccco2)c(C(=O)c2cccnc2)s1)c1ccncc1` [Compound 304, N-[4-(2-Furyl)-5-(pyridin-3-ylcarbonyl)thiazol-2-yl]pyridine-4-carboxamide], `O=C(Nc1nc(-c2ccco2)c(C(=O)c2ccoc2)s1)c1ccncc1` [Compound 346, N-[4-(2-furyl)-5-(furan-3-ylcarbonyl)thiazol-2-yl]pyridine-4-carboxamide] is lower in melting point: 245 to 248 °C for the first, 217 to 231 °C for the second.

Compared with `O=C(CN1CCC(O)CC1)Nc1nc(-c2ccco2)c(C(=O)C2CCOCC2)s1` [Compound 543, N-[4-(2-Furyl)-5-(tetrahydropyran-4-ylcarbonyl)thiazol-2-yl]-2-(4-hydroxypiperidino)acetamide], `O=C(Nc1nc(-c2ccco2)c(C(=O)C2CCCC2)s1)C1CC1` [Compound 434, N-[5-(Cyclopentylcarbonyl)-4-(2-furyl)thiazol-2-yl]cyclopropanecarboxamide] is higher in melting point: 178 to 180 °C for the first, 182 to 187 °C for the second.

First: Cn1ccc(C(=O)c2sc(NC(=O)c3ccncc3)nc2-c2ccco2)c1 [Compound 354, N-[4-(2-Furyl)-5-(1-methylpyrrol-3-ylcarbonyl)thiazol-2-yl]pyridine-4-carboxamide]
Second: Cc1cccc(C(=O)c2sc(NC(=O)c3ccncc3)nc2-c2ccco2)n1 [Compound 284, N-[4-(2-Furyl)-5-(6-methylpyridin-2-ylcarbonyl)thiazol-2-yl]pyridine-4-carboxamide]
The melting point of the first is lower: 209 to 211 °C for the first, 238 to 241 °C for the second.

`O=C(Nc1nc(-c2ccco2)c(C(=O)C2CCSCC2)s1)c1ccncc1` [Compound 589, N-[4-(2-Furyl)-5-(tetrahydrothiopyran-4-ylcarbonyl)thiazol-2-yl]pyridine-4-carboxamide] and `O=C(Nc1nc(-c2ccco2)c(C(=O)C2CCOCC2)s1)c1ccc(Cl)cc1` [Compound 471, 4-Chloro-N-[4-(2-furyl)-5-(tetrahydropyran-4-ylcarbonyl)thiazol-2-yl]benzamide] cannot be ordered by melting point: 203 to 210 °C for the first, 204 to 206 °C for the second.

First: O=C(Nc1nc(-c2ccco2)c(C(=O)C2CCOCC2)s1)c1cccc(OC(F)(F)F)c1 [Compound 476, N-[4-(2-Furyl)-5-(tetrahydropyran-4-ylcarbonyl)thiazol-2-yl]-3-(trifluoromethoxy)benzamide]
Second: Cc1ccc(C(=O)c2sc(NC(=O)c3ccoc3)nc2-c2ccco2)cn1 [Compound 316, N-[4-(2-Furyl)-5-(2-methylpyridin-5-ylcarbonyl)thiazol-2-yl]furan-3-carboxamide]
The melting point of the first is lower: 197 to 198 °C for the first, 229 to 231 °C for the second.

Compared with `O=C(CN1CCSC1)Nc1nc(-c2ccco2)c(C(=O)c2ccccn2)s1` [Compound 281, N-[4-(2-Furyl)-5-(pyridin-2-ylcarbonyl)thiazol-2-yl]-2-(1,3-thiazolidin-3-yl)acetamide], `CCN1CCN(CC(=O)Nc2nc(-c3ccco3)c(C(=O)c3ccccn3)s2)CC1` [Compound 273, 2-(4-Ethylpiperazin-1-yl)-N-[4-(2-furyl)-5-(pyridin-2-ylcarbonyl)thiazol-2-yl]acetamide] is lower in melting point: 153 to 155 °C for the first, 142 to 144 °C for the second.

First: O=C(Nc1nc(-c2ccco2)c(C(=O)c2ccccn2)s1)c1cnc2occc2c1 [Compound 248, N-[4-(2-Furyl)-5-(pyridin-2-ylcarbonyl)thiazol-2-yl]furo[2,3-b]pyridine-5-carboxamide]
Second: O=C(Nc1nc(-c2ccco2)c(C(=O)c2ccccn2)s1)c1cncc(Br)c1 [Compound 226, 5-Bromo-N-[4-(2-furyl)-5-(pyridin-2-ylcarbonyl)thiazol-2-yl]pyridine-3-carboxamide]
The melting point of the first is lower: 234 to 235 °C for the first, 259 to 262 °C for the second.

First: O=C(c1ccccn1)c1sc(NC(=O)C2CCN(Cc3ccncc3)CC2)nc1-c1ccco1 [Compound 198, N-[4-(2-Furyl)-5-(pyridin-2-ylcarbonyl)thiazol-2-yl]-1-(pyridin-4-ylmethyl)piperidine-4-carboxamide]
Second: O=C(c1ccccn1)c1sc(NC(=O)C2CCN(Cc3cccnc3)CC2)nc1-c1ccco1 [Compound 197, N-[4-(2-Furyl)-5-(pyridin-2-ylcarbonyl)thiazol-2-yl]-1-(pyridin-3-ylmethyl)piperidine-4-carboxamide]
The melting point of the first is higher: 240 to 241 °C for the first, 208 to 209 °C for the second.

First: CC1(C(=O)Nc2nc(-c3ccco3)c(C(=O)c3ccccn3)s2)CC1 [Compound 192, N-[4-(2-Furyl)-5-(pyridin-2-ylcarbonyl)thiazol-2-yl]-1-methylcyclopropanecarboxamide]
Second: O=C(Nc1nc(-c2ccco2)c(C(=O)c2ccn(Cc3ccccc3)c(=O)c2)s1)c1ccncc1 [Compound 371, N-[5-(1-Benzyl-2-oxo-1,2-dihydropyridin-4-ylcarbonyl)-4-(2-furyl)thiazol-2-yl]pyridine-4-carboxamide]
The melting point of the first is lower: 195 to 196 °C for the first, 288 to 291 °C for the second.

`Cc1ccoc1-c1nc(NC(=O)c2ccncc2)sc1-c1ccncc1` [Compound 602, N-[4-(3-Methylfuran-2-yl)-5-(4-pyridyl)thiazol-2-yl]pyridine-4-carboxamide] showed a melting point of 254 to 257 °C.

In the case of `Cc1cnc(C(=O)c2sc(NC(=O)c3ccncc3)nc2-c2ccco2)s1` [Compound 349, N-[4-(2-Furyl)-5-(5-methylthiazol-2-ylcarbonyl)thiazol-2-yl]pyridine-4-carboxamide], the melting point is reported as 275 to 277 °C (dec.).
For `O=C(Nc1nc(-c2ccco2)c(C(=O)c2ccncn2)s1)c1ccncc1` [Compound 375, N-[4-(2-Furyl)-5-(pyrimidin-4-ylcarbonyl)thiazol-2-yl]pyridine-4-carboxamide], the melting point was > 300 °C.
